Reference: USRE50189E1, “Long term treatment of HIV-infection with TMC278” (Janssen Sciences Ireland Unlimited Company, priority 2006, dated 2024)

Experiments:
[1] = plasma kinetics of TMC278 in the beagle dog after single intramuscular administration of aqueous 30% DMA/50% PEG400 solution; type: in vivo; conditions: single IM 2.5 mg/kg
Method: The study was performed in order to study the plasma kinetics and the absolute bioavailability of TMC278 in the beagle dog after single intramuscular administration (IM) of an aqueous 30% dimethylacetamide (DMA)/50% polyethylene glycol 400 (PEG400) solution of TMC278 at 2.5 mg/kg. The dogs were dosed IM.
Two male beagle dogs (dog No. 16924 and 16854), approximately 3 years old and weighing between 11 and 12 kg at the start of the experimental phase, were used in the present experiment. The dogs were dosed intramuscularly at 0.1 ml/kg body weight by injecting the formulation in the left (dog No. 16924) or right (dog No. 16854) m. biceps femoris. […]
Blood samples (4 ml on EDTA) were taken from a jugular vein from the dogs at 0 (=predose), 0.5, 1, 2, 4, 8, 24, 32, 48, 72, 96, 144, 192, 240 and 312 h after dose administration. […] These samples were analogously processed and analysed.
On day 232 post-dose, a biopsy was performed (dog No. 16924 only) on the iliac lymph node (at the side of injection), on a muscle from the non-injected hind leg and on a muscle at the side of injection after ultrasonographic examination. […] This sample was processed and analysed similarly to the other blood samples.
The concentration of TMC278 in dog plasma was determined by a qualified research LC-MS/MS method after solid phase extraction (SPE). […]

[2] = system: wild type HIV and mutated variants; conditions: cited from earlier work

SMILES: Cc1cc(C=CC#N)cc(C)c1Nc1ccnc(Nc2ccc(C#N)cc2)n1 [TMC278, 4-[[4-[[4-(2-cyanoethenyl)-2,6-dimethylphenyl]amino]-2-pyrimidinyl]amino]benzonitrile]
- t1/2,24-72h ([1]; mean (n=2)): 63.1 h
- course of plasma levels after 72 h post-dose ([1]; 72 h up to 312 h post-dose): remained fairly constant or slightly increased
- activity against wild type HIV and many of its mutated variants [2]: pronounced activity
